Assay results taken from ChEMBL document CHEMBL1201862, “PubChem BioAssay data set” (2004).
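Dose response: 5 concentrations. Exposure: 48 h. Format: 96-well plates. Endpoint: linear interpolation; highest concentration if not reached. GI50 = concentration required for 50% inhibition of growth.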 Activity calls are given as the source filed them. Cut-off read from the data, not from the text of the source: active = GI50 up to about 1.1 µM and inactive = higher. Starred links: 1 amine or outer side, 2 acyl side, 3 side chain; linkers in the order of their positions; H or OH if unused. Positions of bridges follow the written chain, without caps; N, C: chain ends. Non-standard residues stand in square brackets, D forms with d. Residues, ends and D or L forms follow the SMILES beside them. ξ: configuration not given here. X37 = CC[C@H](C)[C@@H](N[*:1])[C@@H](O)CC(=O)O[C@H](C(=O)[C@H](C)C(=O)[*:2])C(C)C; NMeY = CN[C@@H](Cc1ccc(O)cc1)C(=O)O; dNMeL = CN[C@H](CC(C)C)C(=O)O; ξΔPro = O=C(O)C1C=CCN1

What was measured:
Assay in all cases: growth of human tumour cells (NCI), 48 h
KM12 = system: KM12
UACC-257 = system: UACC-257
Hs-578T = system: Hs-578T
CAKI-1 = system: CAKI-1
SK-MEL-28 = system: SK-MEL-28
BT-549 = system: BT-549
MDA-MB-231 = system: MDA-MB-231
UO-31 = system: UO-31
SK-MEL-2 = system: SK-MEL-2
786-0 = system: 786-0
NCI-H522 = system: NCI-H522
HT-29 = system: HT-29
RPMI-8226 = system: RPMI-8226
IGROV-1 = system: IGROV-1
SK-OV-3 = system: SK-OV-3
A549 = system: A549
SNB-75 = system: SNB-75
SK-MEL-5 = system: SK-MEL-5
ACHN = system: ACHN
MOLT-4 = system: MOLT-4

SMILES | GI50 (KM12) | GI50 (UACC-257) | GI50 (Hs-578T) | GI50 (CAKI-1) | GI50 (SK-MEL-28) | GI50 (BT-549) | GI50 (MDA-MB-231) | GI50 (UO-31) | GI50 (SK-MEL-2) | GI50 (786-0) | GI50 (NCI-H522) | GI50 (HT-29) | GI50 (RPMI-8226) | GI50 (IGROV-1) | GI50 (SK-OV-3) | GI50 (A549) | GI50 (SNB-75) | GI50 (SK-MEL-5) | GI50 (ACHN) | GI50 (MOLT-4)
O=S(=O)(CCCCl)SCCCCl | 46.3 µM (inactive) | 45.9 µM (inactive) | 27.8 µM (inactive) | > 57.1 µM (inactive) | 39.3 µM (inactive) | 11.2 µM (inactive) | 29.9 µM (inactive) | 65.5 µM (inactive) | 44.8 µM (inactive) | 17.4 µM (inactive) | 17.1 µM (inactive) | 25.9 µM (inactive) | 21.9 µM (inactive) | 37.5 µM (inactive) | > 83 µM (inactive) | 68.4 µM (inactive) | 33 µM (inactive) | 30.7 µM (inactive) | 55.7 µM (inactive) | 3.17 µM (inactive)
CC[C@H](C)[C@H]1NC(=O)[C@@H](NC(=O)[C@@H](CC(C)C)N(C)C(=O)C2C=CCN2)[C@@H](C)OC(=O)[C@H](Cc2ccc(OC)cc2)N(C)C(=O)[C@@H]2CCCN2C(=O)[C@H](CC(C)C)NC(=O)[C@@H](C)C(=O)[C@H](C(C)C)OC(=O)C[C@@H]1O (stereo not given in full) (H-[ξΔPro][dNMeL]T[X37]LP[NMeY](Me); ester 3-C) | < 0.005 µM (active) | < 0.005 µM (active) | < 0.005 µM (active) | 0.0107 µM (active) | < 0.005 µM (active) | < 0.005 µM (active) | < 0.005 µM (active) | 0.0204 µM (active) | < 0.005 µM (active) | < 0.005 µM (active) | < 0.005 µM (active) | < 0.005 µM (active) | < 0.005 µM (active) | < 0.005 µM (active) | < 0.005 µM (active) | < 0.005 µM (active) | < 0.005 µM (active) | < 0.005 µM (active) | < 0.005 µM (active) | < 0.005 µM (active)
CCOC(=O)C1(Cc2ccccc2)C=CN(C(=O)c2ccccc2)C=C1 | 36.9 µM (inactive) | 20.6 µM (inactive) | 32.5 µM (inactive) | 38.5 µM (inactive) | 30.8 µM (inactive) | 33.8 µM (inactive) | 37 µM (inactive) | 45.8 µM (inactive) | 18.1 µM (inactive) | 43.7 µM (inactive) | 24.5 µM (inactive) | 34.2 µM (inactive) | 18 µM (inactive) | 61.5 µM (inactive) | > 100 µM (inactive) | 42.4 µM (inactive) | 17.8 µM (inactive) | 15.1 µM (inactive) | 34.1 µM (inactive) | 20.6 µM (inactive)
Cc1cc2c(cc1Cl)SC(NNC1=NCCN1)=NS2(=O)=O | > 10 µM (inactive) | > 10 µM (inactive) | > 10 µM (inactive) | > 10 µM (inactive) | > 10 µM (inactive) | > 10 µM (inactive) | > 10 µM (inactive) | > 10 µM (inactive) | > 10 µM (inactive) | > 10 µM (inactive) | > 10 µM (inactive) | > 10 µM (inactive) | > 10 µM (inactive) | > 10 µM (inactive) | > 10 µM (inactive) | > 10 µM (inactive) | > 10 µM (inactive) | > 10 µM (inactive) | > 10 µM (inactive) | > 10 µM (inactive)
O=C(Cn1ccc(=O)[nH]c1=O)Nc1ccc(C(=O)O)c(O)c1 | > 100 µM (inactive) | > 100 µM (inactive) | > 100 µM (inactive) | > 100 µM (inactive) | > 100 µM (inactive) | > 100 µM (inactive) | > 100 µM (inactive) | > 100 µM (inactive) | > 100 µM (inactive) | > 100 µM (inactive) | > 100 µM (inactive) | > 100 µM (inactive) | > 100 µM (inactive) | > 100 µM (inactive) | < 0.01 µM (active) | > 100 µM (inactive) | > 100 µM (inactive) | > 100 µM (inactive) | > 100 µM (inactive) | > 100 µM (inactive)
C1=CC2C(C3CN(c4ccccc4)N=C13)C1C3C4C=CC21C=CC43 (stereo not given) | > 100 µM (inactive) | > 100 µM (inactive) | > 100 µM (inactive) | > 100 µM (inactive) | > 100 µM (inactive) | > 100 µM (inactive) | > 100 µM (inactive) | > 100 µM (inactive) | > 100 µM (inactive) | > 100 µM (inactive) | 97.5 µM (inactive) | > 100 µM (inactive) | > 100 µM (inactive) | > 100 µM (inactive) | > 100 µM (inactive) | > 100 µM (inactive) | > 65.3 µM (inactive) | > 100 µM (inactive) | > 100 µM (inactive) | > 100 µM (inactive)
C/C(=N/NC(=S)N1CCCCC1)c1cccc(/C(C)=N\NC(=S)N2CCCCC2)n1 | 2.33 µM (inactive) | 2.85 µM (inactive) | 2.38 µM (inactive) | 2.08 µM (inactive) | 2.01 µM (inactive) | 1.92 µM (inactive) | 1.31 µM (inactive) | 1.45 µM (inactive) | 2.1 µM (inactive) | 2.01 µM (inactive) | 1.77 µM (inactive) | 2.51 µM (inactive) | 2.3 µM (inactive) | 1.94 µM (inactive) | 1.91 µM (inactive) | 3 µM (inactive) | 2.62 µM (inactive) | 1.95 µM (inactive) | 1.46 µM (inactive) | 2.4 µM (inactive)
